The source of these data is patent US11998553B2, “Certain (2S)-N-[(1S)-1-cyano-2-phenylethyl]-1,4-oxazepane-2-carboxamides for treating lupus nephritis” (Insmed Incorporated, priority 2018, dated 2024).

In the test the test system is NZB/WF1 mice. The test can be described thus: Accelerated lupus nephritis model in mice (Ad-IFNα5 injection). The class given is in vivo. On the procedure: INS1007 as a potential treatment for LN was assessed. 10-11 week old female New Zealand Black/New Zealand White F1 (NZB/WF1) mice (Jackson Laboratory) were subjected to a single injection of an adenovirus expressing IFNα5 (Ad-IFNα5, BioXcell, cat #BE0241, clone AR1-5A3) to accelerate the clinical manifestations of LN. FIG. 1 provides a schematic overview of the study design.
The duration of the study was 8 weeks from Ad-IFNα5 injection.
Urine and blood collection was carried out at baseline (immediately after Ad-IFNα5 injection), and at weeks 2, 4, 6 and 8. Total protein (by chemstick), albumin (by ELISA) and creatinine (by a colorimetric assay kit) was measured in urine and blood urea nitrogen (BUN) was measured in plasma.
Animals were sacrificed at 8 weeks and the left kidney of each animal was used for histopathology analysis. Pathology scores are summed from individual scores of three aspects: glomerulonephritis, tubular protein and nephropathy and were scored by a Certified Veterinary Pathologist.
The right kidneys of each animal were used for FACS analysis. Right kidneys were digested and subjected to Percoll centrifugation, fixable-viability-dye and surface staining for the following markers: CD45, CD3, CD11b, F4/80, Ly6G and Ly6C. Results of FACS are provided at FIGS. 7-13.

Turning to `Cn1c(=O)oc2ccc(-c3ccc(C[C@@H](C#N)NC(=O)[C@@H]4CNCCCO4)cc3)cc21` [INS1007, (2S)—N-{(1S)-1-cyano-2-[4-(3-methyl-2-oxo-2,3-dihydro-1,3-benzoxazol-5-yl)phenyl]ethyl}-1,4-oxazepane-2-carboxamide], the “pseudo-survival (urine total protein less than 750 mg/dL)” value (days post Ad-IFNα5 injection, INS1007 0.1, 1, 10 mg/kg PO twice daily, FIG. 5) is on record as “increased “pseudo-survival” (and decreased total protein concentration) in a dose dependent manner”. The “renal pathology score sum (glomerulonephritis, tubular protein, nephropathy)” value (left kidney histopathology at 8 weeks, vs vehicle, FIG. 6) was “decreased renal pathology as compared to vehicle control”. Also, where the note is “plasma BUN (mg/dL), 6 weeks after model induction, INS1007 0.1, 1, 10 mg/kg PO twice daily, FIG. 4”, the “blood urea nitrogen (BUN) levels” value was “decreased in animals treated with INS1007 in a dose dependent matter”. Further, the “T-lymphocyte percent of total kidney cells” value (right kidney FACS, CD45+, CD3+, week 8, FIG. 13) was “significantly decreased”. Further, the “Ly6C+ macrophage percent of total kidney cells” value (right kidney FACS, CD45+, CD11b+, F4/80+, Ly6C+, Ly6G−, week 8, FIG. 11) is on record as “significantly decreased”. For the setting “right kidney FACS, CD45+, CD11b+, Ly6G−, Ly6C+, week 8, FIG. 10”, the “Ly6C+ monocyte percent of total kidney cells” value is “significantly decreased”. The “myelocyte percent of total kidney cells” value (right kidney FACS, CD45+, CD11b+, week 8, FIG. 8) is reported as “significantly decreased”. Besides, for the setting “urine total protein by chemstick (mg/dL), week 8, INS1007 0.1, 1, 10 mg/kg PO twice daily from week 2, FIG. 3”, the urinary protein concentration entry is listed as “decrease in urinary protein concentration (mg/dL) in a dose dependent manner”.
